The source of these data is patent publication US8906909B2 (Curis, Inc., priority 2009, dated 2014).

Data set [1] has as its system HDACs (HeLa cell nuclear extracts). Briefly: HDAC enzymatic activity, Biomol Color de Lys system. In kind it is biochemical. The method in brief:
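HeLa nuclear extract as HDAC source with Color de Lys substrate in 50 mM Tris/Cl pH 8.0, 137 mM NaCl, 2.7 mM KCl, 1 mM MgCl2. Serially diluted compounds reacted 1 h at 25 °C, then developer added; fluorescence (Ex 350–380/Em 440–460) fitted sigmoidally for IC50.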

With `Cc1ncc(-c2nc(N3CCOCC3)c3sc(NCCCCC(=O)NO)cc3n2)cn1` [Compound 229, N-Hydroxy-5-(2-(2-methylpyrimidin-5-yl)-4-morpholinothieno[3,2-d]pyrimidin-6-ylamino)pentanamide], the melting point was in the range of 248 to 252 °C. Further, in data set [1], the IC50 was < 100 nM.
For `CN(Cc1cc2nc(-c3ccc(N)c(C#N)c3)nc(N3CCOCC3)c2s1)c1ncc(C(=O)NO)cn1` [Compound 280, 2-(((2-(4-Amino-3-cyanophenyl)-4-morpholinothieno[3,2-d]pyrimidin-6-yl)methyl)(methyl)amino)-N-hydroxypyrimidine-5-carboxamide] the same measures were 237 to 240 °C and < 100 nM.
For `CS(=O)(=O)N1CCN(Cc2cc3nc(-c4cccc5nn(CCCCCCC(=O)NO)cc45)nc(N4CCOCC4)c3s2)CC1` [Compound 9, N-hydroxy-7-(4-(6-((4-(methylsulfonyl)piperazin-1-yl)methyl)-4-morpholinothieno[3,2-d]pyrimidin-2-yl)-2H-indazol-2-yl)heptanamide] the same measures were 123 to 126 °C and < 100 nM.
For `CN(Cc1cc2nc(-c3ccc(N4CCCC4)cc3)nc(N3CCOCC3)c2s1)c1ncc(C(=O)NO)cn1` [Compound 155, N-hydroxy-2-(methyl((4-morpholino-2-(4-(pyrrolidin-1-yl)phenyl)thieno[3,2-d]pyrimidin-6-yl)methyl)amino)pyrimidine-5-carboxamide] the same measures were 187 to 192 °C and < 100 nM.
`CC(C)(C)CN(Cc1cc2nc(-c3cccc4[nH]ncc34)nc(N3CCOCC3)c2s1)c1ncc(C(=O)NO)cn1` [Compound 83, 2-(((2-(1H-indazol-4-yl)-4-morpholinothieno[3,2-d]pyrimidin-6-yl)methyl)(neopentyl)amino)-N-hydroxypyrimidine-5-carboxamide] had a melting point of 240 to 242 °C. For the same compound, the IC50 in data set [1] fell in the range of 1000 to 10000 nM.
For `CN(Cc1cc2nc(-c3ccc(C(N)=O)cc3)nc(N3CCOCC3)c2s1)c1ncc(C(=O)NO)cn1` [Compound 143, 2-(((2-(4-carbamoylphenyl)-4-morpholinothieno[3,2-d]pyrimidin-6-yl)methyl)(methyl)amino)-N-hydroxypyrimidine-5-carboxamide] the same measures were 200 to 202 °C and < 100 nM.
`CS(=O)(=O)N1CCN(Cc2cc3nc(-c4ccc(OCCCCCCC(=O)NO)cc4)nc(N4CCOCC4)c3s2)CC1` [Compound 321, N-Hydroxy-7-(4-(6-((4-(methylsulfonyl)piperazin-1-yl)methyl)-4-morpholinothieno[3,2-d]pyrimidin-2-yl)phenoxy)heptanamide] came in with a melting point of 143 to 145 °C. The same compound had an IC50 in data set [1] of 100 to 1000 nM.
For `CN(Cc1cc2nc(-c3ccc(N)c(N)c3)nc(N3CCOCC3)c2s1)c1ncc(C(=O)NO)cn1` [Compound 156, 2-(((2-(3,4-diaminophenyl)-4-morpholinothieno[3,2-d]pyrimidin-6-yl)methyl)(methyl)amino)-N-hydroxypyrimidine-5-carboxamide] the same measures were 222 to 225 °C and < 100 nM.
For `CN(Cc1cc2nc(-c3cccc4[nH]ncc34)nc(Nc3ccccc3)c2s1)c1ncc(C(=O)NO)cn1` [Compound 164, 2-(((2-(1H-indazol-4-yl)-4-(phenylamino)thieno[3,2-d]pyrimidin-6-yl)methyl)(methyl)amino)-N-hydroxypyrimidine-5-carboxamide] the same measures were 232 to 235 °C and < 100 nM.
For `CN(Cc1cc2nc(-c3ccc(CN)cc3)nc(N3CCOCC3)c2s1)c1ncc(C(=O)NO)cn1` [Compound 135, 2-(((2-(4-(aminomethyl)phenyl)-4-morpholinothieno[3,2-d]pyrimidin-6-yl)methyl)(methyl)amino)-N-hydroxypyrimidine-5-carboxamide] the same measures were 184 to 186 °C and < 100 nM.
Consider `CC(=O)Nc1cccc(-c2nc(N3CCOCC3)c3sc(CN(C)c4ncc(C(=O)NO)cn4)cc3n2)c1` [Compound 107, 2-(((2-(3-acetamidophenyl)-4-morpholinothieno[3,2-d]pyrimidin-6-yl)methyl)(methyl)amino)-N-hydroxypyrimidine-5-carboxamide], for which the melting point fell in the range of 183 to 185 °C. Besides, in data set [1], the IC50 was < 100 nM.
On to `COc1ccc(-c2nc(N3CCOCC3)c3sc(NS(=O)(=O)c4ccc(/C=C/C(=O)NO)cc4)cc3n2)cn1` [Compound 222, N-Hydroxy-3-{4-[2-(6-methoxy-pyridin-3-yl)-4-morpholin-4-yl-thieno[3,2-d]pyrimidin-6-ylsulfamoyl]-phenyl}-acrylamide], for which the melting point was > 300 °C. Further, the IC50 in data set [1] is < 100 nM.
For `C[C@@H](O)c1cccc(-c2nc(N3CCOCC3)c3sc(CN(C)c4ncc(C(=O)NO)cn4)cc3n2)c1` [Compound 297, (R)—N-Hydroxy-2-(((2-(3-(1-hydroxyethyl)phenyl)-4-morpholinothieno[3,2-d]pyrimidin-6-yl)methyl)(methyl)amino)pyrimidine-5-carboxamide] the same measures were 169 to 173 °C and < 100 nM.
For `CN(Cc1cc2nc(-c3ccc4c(c3)NCCO4)nc(N3CCOCC3)c2s1)c1ncc(C(=O)NO)cn1` [Compound 182, 2-(((2-(3,4-dihydro-2H-benzo[b][1,4]oxazin-6-yl)-4-morpholinothieno[3,2-d]pyrimidin-6-yl)methyl)(methyl)amino)-N-hydroxypyrimidine-5-carboxamide] the same measures were 170 to 183 °C and < 100 nM.
In turn, `CN(Cc1cc2nc(-c3ccc(N)c(CO)c3)nc(N3CCOCC3)c2s1)c1ncc(C(=O)NO)cn1` [Compound 285, 2-(((2-(4-Amino-3-(hydroxymethyl)phenyl)-4-morpholinothieno[3,2-d]pyrimidin-6-yl)methyl)(methyl)amino)-N-hydroxypyrimidine-5-carboxamide] had a melting point of 195 to 200 °C. For the same compound, in data set [1], the IC50 was < 100 nM.
Regarding `CN(CCCCCC(=O)NO)Cc1cc2nc(-c3cccc4[nH]ncc34)nc(N3CCOCC3)c2s1` [Compound 103, 6-(((2-(1H-indazol-4-yl)-4-morpholinothieno[3,2-d]pyrimidin-6-yl)methyl)(methyl)amino)-N-hydroxyhexanamide], the melting point is 115 to 118 °C. For the same compound, in data set [1], the IC50 was < 100 nM.
As for `CNc1ccc(-c2nc(N3CCOCC3)c3sc(CN(C)c4ncc(C(=O)NO)cn4)cc3n2)cc1` [Compound 151, N-hydroxy-2-(methyl((2-(4-(methylamino)phenyl)-4-morpholinothieno[3,2-d]pyrimidin-6-yl)methyl)amino)pyrimidine-5-carboxamide], the melting point was in the range of 218 to 220 °C. The IC50 in data set [1] is < 100 nM.
For `COc1ccc(-c2nc(N3CCOCC3)c3sc(NS(=O)(=O)c4cccc(/C=C/C(=O)NO)c4)cc3n2)cn1` [Compound 221, (E)-N-hydroxy-3-(3-(N-(2-(6-methoxypyridin-3-yl)-4-morpholinothieno[3,2-d]pyrimidin-6-yl)sulfamoyl)phenyl)acrylamide], the melting point was > 300 °C. Besides, the IC50 in data set [1] is < 100 nM.
